The record followed here is patent US20220242870A1, “HETEROCYCLE-FUSED PYRIMIDINE DERIVATIVE AND USE THEREOF” (VORONOI Inc., priority 2019, published 2022).

Some results are limits rather than exact numbers.

Assay [1] relates to MV4-11 cells. As to the kind of experiment: AML cell proliferation inhibitory activity (CellTiter-Glo). Type of assay: cell-based. The note with it: Homo sapiens, 72 hours. As to the method: The inhibitory activities of the example compounds according to the present invention on the proliferation of acute myeloid leukemia (AML) cells expressing the FLT3 mutant gene were evaluated. Specifically, RS4;11 and MV4-11 cells as acute myeloid leukemia cells expressing the FLT3 mutant gene were cultured in RPMI-1640 (Invitrogen) adding 10% FBS. The cells were seeded into each well of a clear bottom white 96-well plate (Corning) at 3000 to 5000 cells 24 hours before compound treatment. The compound was diluted in DMSO (diluted each three-fold, to a total of 12 concentrations) and injected at 0.5 μL each so as to be a final concentration of 0.3 nM to 50 μM. After 72 hours of the compound treatment, they were treated with CellTiter-Glo Luminescent Cell Viability assay (Promega) and stored at room temperature for 10 minutes, and luminescence intensities were measured with a reader (SynergyNeo, Biotek) to count viable cells. Each experiment was performed three times repeatedly. The result values were calculated as the cell growth rate (%) compared to the control treated with the solvent. The graph was derived using the GraphPad Prism program (version 5.0), the GI50 (nM) values were calculated, and the results were shown in Table 3 below.
A general note: In ATP-based viability assays light output follows the ATP content of the culture.

For assay [2], the target named is T1, human FLT3-ITD enzyme (Homo sapiens, UniProt P36888).
T1 sequence (P36888 1-993): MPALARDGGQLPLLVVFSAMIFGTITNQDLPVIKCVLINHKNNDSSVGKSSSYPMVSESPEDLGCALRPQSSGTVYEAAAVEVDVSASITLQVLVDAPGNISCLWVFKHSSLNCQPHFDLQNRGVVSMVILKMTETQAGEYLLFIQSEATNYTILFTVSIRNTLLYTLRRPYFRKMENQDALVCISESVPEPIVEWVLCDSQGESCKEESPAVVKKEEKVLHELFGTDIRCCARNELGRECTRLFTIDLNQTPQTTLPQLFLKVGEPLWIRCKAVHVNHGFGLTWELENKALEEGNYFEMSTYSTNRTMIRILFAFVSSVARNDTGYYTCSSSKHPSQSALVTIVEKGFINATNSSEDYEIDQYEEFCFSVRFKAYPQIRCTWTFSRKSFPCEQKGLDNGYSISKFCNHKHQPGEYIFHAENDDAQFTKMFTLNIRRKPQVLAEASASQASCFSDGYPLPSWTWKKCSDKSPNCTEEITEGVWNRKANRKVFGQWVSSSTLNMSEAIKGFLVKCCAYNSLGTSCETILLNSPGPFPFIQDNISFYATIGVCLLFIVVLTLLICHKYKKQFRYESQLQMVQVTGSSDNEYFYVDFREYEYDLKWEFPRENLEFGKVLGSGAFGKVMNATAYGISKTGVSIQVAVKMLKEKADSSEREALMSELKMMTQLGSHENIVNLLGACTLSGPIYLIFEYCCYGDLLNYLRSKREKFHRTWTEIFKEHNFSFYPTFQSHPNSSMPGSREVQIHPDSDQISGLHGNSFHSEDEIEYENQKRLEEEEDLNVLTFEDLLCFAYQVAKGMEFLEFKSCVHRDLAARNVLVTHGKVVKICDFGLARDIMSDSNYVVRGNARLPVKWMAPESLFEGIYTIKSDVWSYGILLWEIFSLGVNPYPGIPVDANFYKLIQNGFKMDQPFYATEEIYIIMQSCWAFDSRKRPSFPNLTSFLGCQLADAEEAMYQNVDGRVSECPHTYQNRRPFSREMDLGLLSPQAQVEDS
As to the kind of experiment: FLT3 enzyme inhibitory ability (ADP-Glo kinase assay). The class given is biochemical. The note with it: human FLT3-ITD enzyme 10 ng, ATP 10 μM, 25° C. 1 hour. The method in brief:
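Purified human FLT3-ITD (10 ng) with 10 μM ATP and specific substrate in 40 mM Tris-HCl pH 7.4, 20 mM MgCl2, 0.5 mg/mL BSA, 50 μM DTT, 1 h at 25 °C. ADP formation read by ADP-Glo luminescence; IC50 (nM) versus solvent-treated control.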
On the technique in general: ADP-Glo first removes unused ATP, then detects ADP through luciferase.

For assay [3], the target named is T2, human GST-HPK1 (1-346) (Homo sapiens, UniProt Q92918).
T2 construct: purified human GST-HPK1 (1-346, Signalchem) enzyme; purchased Signalchem
T2 sequence (Q92918 1-346): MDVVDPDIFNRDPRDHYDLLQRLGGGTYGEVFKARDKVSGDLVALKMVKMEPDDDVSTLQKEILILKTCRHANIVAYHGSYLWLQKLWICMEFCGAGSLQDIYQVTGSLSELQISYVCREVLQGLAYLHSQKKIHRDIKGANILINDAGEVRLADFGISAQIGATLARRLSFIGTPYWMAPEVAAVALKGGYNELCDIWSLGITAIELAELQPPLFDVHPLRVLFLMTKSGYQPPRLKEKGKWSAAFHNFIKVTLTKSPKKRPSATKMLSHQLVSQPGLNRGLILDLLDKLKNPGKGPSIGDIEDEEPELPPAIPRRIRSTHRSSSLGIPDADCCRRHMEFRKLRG
As to the kind of experiment: HPK1 enzyme inhibitory ability (ADP-Glo kinase assay). Type of assay: biochemical. The note with it: human GST-HPK1 3 ng, ATP 3 uM, 25° C. 2 hours. The method in brief:
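Human GST-HPK1(1-346), 3 ng, reacted with 3 uM ATP and specific substrate in 40 mM Tris-HCl pH 7.4, 20 mM MgCl2, 0.5 mg/mL BSA, 50 uM DTT for 2 h at 25° C. ADP-Glo luminescence read; IC50 (nM) relative to untreated solvent control.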

Assay [4] concerns MCF-7 cells. As to the kind of experiment: Breast cancer cell line proliferation inhibitory activity (CellTiter-Glo 2.0). The class given is cell-based. The note with it: Homo sapiens, MCF7, 120 hours. As to the method: In order to evaluate the breast cancer cell line cell proliferation inhibitory activities of Examples according to the present invention, the following experiment was performed. Breast cancer cells of MCF-7 (Korean Cell Line Bank) were planted in a clear bottom white 96-well plate (Corning) so as to be 3×10^3/150 μl/well, and a culture solution comprising the compound continuously diluted in multiples of 3 at 12 concentrations (0.00001-2 mM) and a DMSO control group was added by 0.5 μl/well and treated so that the final concentration was 0.00005-10 μM, and then cultured in a 37° C. CO2 incubator for 120 hours. After 120 hours, the plate treated with the compound is taken out, and CellTiter-Glo® 2.0 Assay (Promega) solution is treated at 150 μl/well and then they mix well. They mix well at room temperature for 10 minutes or so, and the fluorescence is measured with a microplate reader. The data were expressed as a percentage in proportion to the vehicle standard treated cells, the GI50 (nM) values were calculated using GraphPad Prism 8.3.0 (GraphPad software Inc., San Diego), and the results were shown in Table 3 below.

Turning to `C1=NN(c2nc(Nc3ccc(N4CCOCC4)cc3)nc3ccsc23)C(c2ccccc2)C1` (centres unmarked) [Example 3, N-(4-morpholinophenyl)-4-(5-phenyl-4,5-dihydro-1H-pyrazol-1-yl)thieno[3,2-d]pyrimidin-2-amine], the GI50 in assay [1] is greater than 500 nM.

Turning to `CN1CCN(c2ccc(Nc3nc(N4N=CCC4c4ccccc4)c4sccc4n3)nc2)CC1` (centres unmarked) [Example 4, N-(5-(4-methylpiperazin-1-yl)pyridin-2-yl)-4-(5-phenyl-4,5-dihydro-1H-pyrazol-1-yl)thieno[3,2-d]pyrimidin-2-amine], the GI50 in assay [1] was greater than 500 nM. For the same molecule, the IC50 in assay [2] is greater than 500 nM.

On to `COc1cc(N2CCC(N3CCN(C)CC3)CC2)ccc1Nc1nc(N2N=CCC2c2ccccc2)c2sccc2n1` (centres unmarked) [Example 10, N-(2-methoxy-4-(4-(4-methylpiperazin-1-yl)piperidin-1-yl)phenyl)-4-(5-phenyl-4,5-dihydro-1H-pyrazol-1-yl)thieno[3,2-d]pyrimidin-2-amine], for which the GI50 in assay [1] was greater than 500 nM. The molecule further showed an IC50 in assay [2] of no less than 250 nM.

With `Cc1cc(N2CCOCC2)ccc1Nc1nc(N2N=CCC2c2ccccc2)c2sccc2n1` (centres unmarked) [Example 21, N-(2-methyl-4-morpholinophenyl)-4-(5-phenyl-4,5-dihydro-1H-pyrazol-1-yl)thieno[3,2-d]pyrimidin-2-amine], the GI50 in assay [1] is greater than 500 nM.

As for `O=C(c1ccc(Nc2nc(N3N=CCC3c3ccccc3)c3sccc3n2)cc1)N1CCOCC1` (centres unmarked) [Example 22, morpholino(4-((4-(5-phenyl-4,5-dihydro-1H-pyrazol-1-yl)thieno[3,2-d]pyrimidin-2-yl)amino)phenyl)methanone], in assay [1], the GI50 was greater than 500 nM.

For `Cc1cn(Cc2ccc(Nc3nc(N4N=CCC4c4ccccc4)c4sccc4n3)cc2)cn1` (centres unmarked) [Example 23, N-(4-((4-methyl-1H-imidazol-1-yl)methyl)phenyl)-4-(5-phenyl-4,5-dihydro-1H-pyrazol-1-yl)thieno[3,2-d]pyrimidin-2-amine], the GI50 in assay [1] was greater than 500 nM.

For `Cc1cn(Cc2cccc(Nc3nc(N4N=CCC4c4ccccc4)c4sccc4n3)c2)cn1` (centres unmarked) [Example 24, N-(3-((4-methyl-1H-imidazol-1-yl)methyl)phenyl)-4-(5-phenyl-4,5-dihydro-1H-pyrazol-1-yl)thieno[3,2-d]pyrimidin-2-amine], in assay [1], the GI50 is greater than 500 nM.

For the molecule `CN(C)CCn1cc(Nc2nc(N3N=CCC3c3ccccc3)c3sccc3n2)cn1` (centres unmarked) [Example 27, N-(1-(2-(dimethylamino)ethyl)-1H-pyrazol-4-yl)-4-(5-phenyl-4,5-dihydro-1H-pyrazol-1-yl)thieno[3,2-d]pyrimidin-2-amine], in assay [1], the GI50 was greater than 500 nM.

As for `CN1CCC(NC(=O)c2ccc(Nc3nc(N4OCC[C@H]4c4ccccc4)c4cc[nH]c4n3)cc2)CC1` [Example 95, (S)-N-(1-methylpiperidin-4-yl)-4-((4-(3-phenylisoxazolidin-2-yl)-7H-pyrrolo[2,3-d]pyrimidin-2-yl)amino)benzamide], the values for the IC50 in assay [3] and in assay [2] were no less than 250 nM and greater than 500 nM, respectively. The GI50 in assay [4] was greater than 500 nM.

Consider `CN(C)[C@H]1CCN(c2cccc(Nc3nc(N4OCC[C@H]4c4ccccc4)c4cc[nH]c4n3)c2)C1` [Example 99, N-(3-((S)-3-(dimethylamino)pyrrolidin-1-yl)phenyl)-4-((S)-3-phenylisoxazolidin-2-yl)-7H-pyrrolo[2,3-d]pyrimidin-2-amine], for which the IC50 in assay [3] and in assay [2] was greater than 500 nM each time. The molecule also displayed a GI50 in assay [4] greater than 500 nM.

Take `CN(C)[C@@H]1CCN(c2cccc(Nc3nc(N4OCC[C@H]4c4ccccc4)c4cc[nH]c4n3)c2)C1` [Example 100, N-(3-((R)-3-(dimethylamino)pyrrolidin-1-yl)phenyl)-4-((S)-3-phenylisoxazolidin-2-yl)-7H-pyrrolo[2,3-d]pyrimidin-2-amine]: the IC50 in assay [3] and in assay [2] was greater than 500 nM throughout. This molecule showed a GI50 in assay [4] greater than 500 nM.

Take `CC1(C)OC(=O)c2ccc(Nc3nc(N4OCC[C@H]4c4ccccc4)c4cc[nH]c4n3)cc21` [Example 115, (S)-3,3-dimethyl-5-((4-(3-phenylisoxazolidin-2-yl)-7H-pyrrolo[2,3-d]pyrimidin-2-yl)amino)isobenzofuran-1(3H)-one]: the IC50 in assay [3] and in assay [2] was greater than 500 nM each time. For the same molecule, the GI50 in assay [4] was greater than 500 nM.

On to `COc1cc(N2CCC(N3CCN(C)CC3)CC2)ccc1Nc1nc(N2OCC[C@H]2c2ccccc2)c2c(C#N)c[nH]c2n1` [Example 121, (S)-2-((2-methoxy-4-(4-(4-methylpiperazin-1-yl)piperidin-1-yl)phenyl)amino)-4-(3-phenylisoxazolidin-2-yl)-7H-pyrrolo[2,3-d]pyrimidine-5-carbonitrile], for which the IC50 in assay [3] and in assay [2] was greater than 500 nM in each case. Also, the GI50 in assay [4] was no less than 250 nM.

Take `CN(C)[C@@H]1CCN(c2cccc(Nc3nc(N4OCC[C@@H]4c4ccccc4)c4cc[nH]c4n3)c2)C1` [Example 125, N-(3-((R)-3-(dimethylamino)pyrrolidin-1-yl)phenyl)-4-((R)-3-phenylisoxazolidin-2-yl)-7H-pyrrolo[2,3-d]pyrimidin-2-amine]: the IC50 in assay [3] and in assay [2] was greater than 500 nM throughout. Besides, in assay [4], the GI50 is greater than 500 nM.

In the case of `CN(C)[C@H]1CCN(c2cccc(Nc3nc(N4OCC[C@@H]4c4ccccc4)c4cc[nH]c4n3)c2)C1` [Example 126, N-(3-((S)-3-(dimethylamino)pyrrolidin-1-yl)phenyl)-4-((R)-3-phenylisoxazolidin-2-yl)-7H-pyrrolo[2,3-d]pyrimidin-2-amine], the IC50 in assay [3] and in assay [2] was greater than 500 nM in each case. The GI50 in assay [4] is greater than 500 nM.

`CN1CCN(c2ccc(Nc3nc(N4OCC[C@@H]4c4ccccc4)c4cc[nH]c4n3)cc2)CC1` [Example 128, (R)-N-(4-(4-methylpiperazin-1-yl)phenyl)-4-(3-phenylisoxazolidin-2-yl)-7H-pyrrolo[2,3-d]pyrimidin-2-amine]: the GI50 in assay [1] is 250 to 500 nM.

The GI50 is the concentration giving 50% growth inhibition. As a reminder, the IC50 is the midpoint of a concentration-inhibition curve.
